Test results reported in US20260070927A1, “INDAZOLE MACROCYCLES FOR THE TREATMENT OF AUTOIMMUNE DISEASE” (Hoffmann-La Roche Inc., priority 2022, published 2026).

Columns and labels:
[1] = target: human stimulator of interferon genes (STING) (139-379) (Homo sapiens (Human), UniProt Q86WV6); test: Microliter plate-based TR-FRET competition-binding assay for binders of STING; settings: Alexa488 probe, read-out: FRET_IC50
Description: This is the competition-binding assay to test the compounds' potency to the C-terminal Domain (CTD) and ligand-binding domain of human stimulator of interferon genes (STING). STING (139-379, Q86WV6, http://www.uniprot.org/uniprot) recombinant protein (in 20 mM Tris, 150 mM NaCl, pH 8.0, and expression in Escherichia coli (E. coli) BL21 (DE3)) with a C-terminal flag-tag was employed for the assay. When Alexa-488 labeled active site probe (refer to patent WO2017/175156 A1) bounds to STING (139-379), it accepts the 485 nm emission from Tb-M2-Flag-STING and results in an increase in fluorescence at 520 nm. Compounds that compete for the probe-binding site will reduce 520 nm signal. The assay was run in proxiplate-384 plus (PerkinElmer, cat: 60150300) containing of 2.5 nM STING, 2.5 nM M2-Tb (Cisbio, 61FG2TLA, Lot: 17 A) and 250 nM Alexa488 probe. Plates were centrifuged for 1 min at 1000 rpm, incubated for 30 min at room temperature, and then measured the dual fluorescence emission at 520 nm/485 nM following 320 nm laser excitation on an Envision plate reader (Perkin-Elmer). The compounds' effect on the STING binding is detected by measuring ratiometric fluorescence from time-resolved FRET. The percentage of inhibition of at each compound concentration is calculated on the basis of their changes of TR-FRET efficiency relative to the change of TR-FRET caused by positive control 2′3′cGAMP (Sigma, cat: SML1229).

STING (IFN-β in hPBMC) = test: hPBMC cytokine functional assay (IFN-β decrease after Baculovirus stimulation); assay type: cell-based; settings: Homo sapiens, Baculovirus MOI 40, 24 hours, read-out: hPBMC_IC50
Description: The inhibition of STING by compounds could be measured by the decrease of IFN-β in hPBMC, which is stimulated by a double stranded DNA virus Baculoviurs (Purchased from Genescript, pCMV-Dest Vector virus generation P2 BV stock virus, Sf-900 II medium with 5% FBS, Lot C9835DK230-2/P4DL001). Frozen hPBMC cells (purchased from Stemcell Technologies, cat number is 70025, Lot 191070803C) were thawed at 37° C. water bath, then cells were re-suspended in 50 ml tube using 20 ml Cell culture medium, and then centrifuged for 5 min at 2000 rpm before the supernatant was removed carefully. The cells were re-suspended in culture medium (RPMI-1640 with 1.5 g/L NaHCO3, 4.5 g/L glucose, 10 mM HEPES and 1 mM Na-pyruvate, 10% HI-FBS); 65 μL of the cell suspension was dispensed into 384 well plate (70K cells/well) by Multidrop Combi with at least 3 hours incubation at 37° C., 5% CO2 cell incubator.
Then 4 μL of compound solution per well (final 0.5% DMSO) was transferred by Agilent Bravo followed by infection with 11 μL of Baculovirus at a final MOI of 40. The level of IFN-β secreted in the supernatant of hPBMC was determined after 24 hours of incubation at 37° C. cell incubator by human IFN-β HTRF assay (Cisbio, cat: 62HIFNBPEH) following the manufacture's instruction. CellTiter-Glo kit (Promega, cat: G7573) was applied for the cell viability evaluation using Envision.

human stimulator of interferon genes (STING) (139-379), sequence (Q86WV6 139-379): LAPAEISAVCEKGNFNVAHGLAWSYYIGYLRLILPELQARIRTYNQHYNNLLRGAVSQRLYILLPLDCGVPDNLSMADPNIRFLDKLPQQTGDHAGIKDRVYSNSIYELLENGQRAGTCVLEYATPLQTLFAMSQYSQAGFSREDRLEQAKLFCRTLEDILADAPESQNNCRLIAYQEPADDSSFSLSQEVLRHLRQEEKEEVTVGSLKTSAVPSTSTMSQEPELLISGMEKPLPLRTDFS

Compound | IC50 [1] | IC50 (STING (IFN-β in hPBMC))
Cn1nc2cccc3c2c1CCCNC(=O)[C@@H]1C[C@@H](CN1c1ncnc2c1cnn2-c1ccc(F)cc1F)Oc1cccc-3c1 [Example 1, (8S,11S)-10-[1-(2,4-difluorophenyl)pyrazolo[3,4-d]pyrimidin-4-yl]-18-methyl-7-oxa-10,13,18,19-tetrazapentacyclo[15.6.1.1^2,6.1^8,11.0^20,24]hexacosa-1(23),2(26),3,5,17(24),19,21-heptaen-12-one] | 0.8 nM | 486 nM
CN1CCCc2c3c(cccc3nn2C)-c2cccc(c2)O[C@H]2C[C@@H](C1=O)N(c1ncnc3c1cnn3-c1ccc(F)cc1F)C2 [Example 2, (8S,11S)-10-[1-(2,4-difluorophenyl)pyrazolo[3,4-d]pyrimidin-4-yl]-13,18-dimethyl-7-oxa-10,13,18,19-tetrazapentacyclo[15.6.1.1^2,6.1^8,11.0^20,24]hexacosa-1(23),2(26),3,5,17(24),19,21-heptaen-12-one] | 2.7 nM | 594 nM
CN1CCCc2c3c(cccc3nn2C)-c2cccc(n2)N[C@H]2C[C@@H](C1=O)N(c1ncnc3c1cnn3-c1ccc(F)cc1F)C2 [Example 3, (8S,11S)-10-[1-(2,4-difluorophenyl)pyrazolo[3,4-d]pyrimidin-4-yl]-13,18-dimethyl-7,10,13,18,19,26-hexazapentacyclo[15.6.1.1^2,6.1^8,11.0^20,24]hexacosa-1(23),2(26),3,5,17(24),19,21-heptaen-12-one] | 0.6 nM | 288 nM
CN1CCCc2c3c(cccc3nn2C)-c2ccnc(n2)N[C@H]2C[C@@H](C1=O)N(c1nccn3c(-c4ccc(F)cc4F)ncc13)C2 [Example 5, (8S,11S)-10-[3-(2,4-difluorophenyl)imidazo[1,5-a]pyrazin-8-yl]-13,18-dimethyl-5,7,10,13,18,19,26-heptazapentacyclo[15.6.1.1^2,6.1^8,11.0^20,24]hexacosa-1(23),2,4,6(26),17(24),19,21-heptaen-12-one] | 3.8 nM | 308 nM
COc1cc2nc(c1)-c1cccc3nn(C)c(c13)CCCN(C)C(=O)[C@@H]1C[C@@H](CN1c1ncnc3c1cnn3-c1ccc(F)cc1F)N2 [Example 13, (8S,11S)-10-[1-(2,4-difluorophenyl)pyrazolo[3,4-d]pyrimidin-4-yl]-4-methoxy-13,18-dimethyl-7,10,13,18,19,26-hexazapentacyclo[15.6.1.1^2,6.1^8,11.0^20,24]hexacosa-1(23),2,4,6(26),17(24),19,21-heptaen-12-one] | 4.7 nM | 224 nM
COc1cc2nc(c1)-c1cccc3nn(C)c(c13)CCCN(C)C(=O)[C@@H]1C[C@@H](CN1c1ncnc3c1cnn3-c1ccc(F)cc1OC)N2 [Example 14, (8S,11S)-10-[1-(4-fluoro-2-methoxy-phenyl)pyrazolo[3,4-d]pyrimidin-4-yl]-4-methoxy-13,18-dimethyl-7,10,13,18,19,26-hexazapentacyclo[15.6.1.1^2,6.1^8,11.0^20,24]hexacosa-1(23),2,4,6(26),17(24),19,21-heptaen-12-one] | 4.8 nM | 255 nM
Cn1nc2cccc3c2c1CCCN(CC1CC1)C(=O)[C@@H]1C[C@@H](CN1c1ncnc2c1cnn2-c1ccc(F)cc1F)Oc1cccc-3c1 [Example 15, (8S,11S)-13-(cyclopropylmethyl)-10-[1-(2,4-difluorophenyl)pyrazolo[3,4-d]pyrimidin-4-yl]-18-methyl-7-oxa-10,13,18,19-tetrazapentacyclo[15.6.1.1^2,6.1^8,11.0^20,24]hexacosa-1(23),2(26),3,5,17(24),19,21-heptaen-12-one] | 1.6 nM | 140 nM
Cn1nc2cccc3c2c1CCCN(Cc1cscn1)C(=O)[C@@H]1C[C@@H](CN1c1ncnc2c1cnn2-c1ccc(F)cc1F)Oc1cccc-3c1 [Example 17, (8S,11S)-10-[1-(2,4-difluorophenyl)pyrazolo[3,4-d]pyrimidin-4-yl]-18-methyl-13-(thiazol-4-ylmethyl)-7-oxa-10,13,18,19-tetrazapentacyclo[15.6.1.1^2,6.1^8,11.0^20,24]hexacosa-1(23),2(26),3,5,17(24),19,21-heptaen-12-one] | 2.2 nM | –
C=CCN1CCCc2c3c(cccc3nn2C)-c2cccc(c2)O[C@H]2C[C@@H](C1=O)N(c1ncnc3c1cnn3-c1ccc(F)cc1F)C2 [Example 20, (8S,11S)-13-allyl-10-[1-(2,4-difluorophenyl)pyrazolo[3,4-d]pyrimidin-4-yl]-18-methyl-7-oxa-10,13,18,19-tetrazapentacyclo[15.6.1.1^2,6.1^8,11.0^20,24]hexacosa-1(23),2(26),3,5,17(24),19,21-heptaen-12-one] | 1.9 nM | 346 nM
COCCN1CCCc2c3c(cccc3nn2C)-c2cccc(c2)O[C@H]2C[C@@H](C1=O)N(c1ncnc3c1cnn3-c1ccc(F)cc1F)C2 [Example 21, (8S,11S)-10-[1-(2,4-difluorophenyl)pyrazolo[3,4-d]pyrimidin-4-yl]-13-(2-methoxyethyl)-18-methyl-7-oxa-10,13,18,19-tetrazapentacyclo[15.6.1.1^2,6.1^8,11.0^20,24]hexacosa-1(23),2(26),3,5,17(24),19,21-heptaen-12-one] | 2 nM | 380 nM
Cn1nc2cccc3c2c1CCCN(CCN1CCOCC1)C(=O)[C@@H]1C[C@@H](CN1c1ncnc2c1cnn2-c1ccc(F)cc1F)Oc1cccc-3c1 [Example 23, (8S,11S)-10-[1-(2,4-difluorophenyl)pyrazolo[3,4-d]pyrimidin-4-yl]-18-methyl-13-(2-morpholinoethyl)-7-oxa-10,13,18,19-tetrazapentacyclo[15.6.1.1^2,6.1^8,11.0^20,24]hexacosa-1(23),2(26),3,5,17(24),19,21-heptaen-12-one] | 1.6 nM | 279 nM
Cn1nc2cc(F)cc3c2c1CCCN(CCN1CCOCC1)C(=O)[C@@H]1C[C@@H](CN1c1ncnc2c1cnn2-c1ccc(F)cc1F)Oc1cccc-3c1 [Example 25, (8S,11S)-10-[1-(2,4-difluorophenyl)pyrazolo[3,4-d]pyrimidin-4-yl]-22-fluoro-18-methyl-13-(2-morpholinoethyl)-7-oxa-10,13,18,19-tetrazapentacyclo[15.6.1.1^2,6.1^8,11.0^20,24]hexacosa-1(23),2(26),3,5,17(24),19,21-heptaen-12-one] | 18.4 nM | 549 nM
Cn1nc2cccc3c2c1CCCN(CCCO)C(=O)[C@@H]1C[C@@H](CN1c1ncnc2c1cnn2-c1ccc(F)cc1F)Oc1cccc-3c1 [Example 26, (8S,11S)-10-[1-(2,4-difluorophenyl)pyrazolo[3,4-d]pyrimidin-4-yl]-13-(3-hydroxypropyl)-18-methyl-7-oxa-10,13,18,19-tetrazapentacyclo[15.6.1.1^2,6.1^8,11.0^20,24]hexacosa-1(23),2(26),3,5,17(24),19,21-heptaen-12-one] | 2.2 nM | 103 nM
Cn1nc2cccc3c2c1CCCN(CCCn1cncn1)C(=O)[C@@H]1C[C@@H](CN1c1ncnc2c1cnn2-c1ccc(F)cc1F)Oc1cccc-3c1 [Example 37, (8S,11S)-10-[1-(2,4-difluorophenyl)pyrazolo[3,4-d]pyrimidin-4-yl]-18-methyl-13-[3-(1,2,4-triazol-1-yl)propyl]-7-oxa-10,13,18,19-tetrazapentacyclo[15.6.1.1^2,6.1^8,11.0^20,24]hexacosa-1(23),2(26),3,5,17(24),19,21-heptaen-12-one] | 1.5 nM | –
COCCOCCCN1CCCc2c3c(cccc3nn2C)-c2cccc(c2)O[C@H]2C[C@@H](C1=O)N(c1ncnc3c1cnn3-c1ccc(F)cc1F)C2 [Example 39, (8S,11S)-10-[1-(2,4-difluorophenyl)pyrazolo[3,4-d]pyrimidin-4-yl]-13-[3-(2-methoxyethoxy)propyl]-18-methyl-7-oxa-10,13,18,19-tetrazapentacyclo[15.6.1.1^2,6.1^8,11.0^20,24]hexacosa-1(23),2(26),3,5,17(24),19,21-heptaen-12-one] | 5.5 nM | –
